Laboratory results: paper PMC10482267, “Safety, tolerability, pharmacokinetics, and pharmacodynamics of single and multiple doses of aficamten in healthy Chinese participants: a randomized, double-blind, placebo-controlled, phase 1 study” (Frontiers in Pharmacology, 2023)
“Also recorded” adds a separate entry of the source.

Key:
[1] = test system: healthy Western participants; settings: 2022, cited from earlier work
[2] = test system: healthy Chinese participants; test: Safety assessments (treatment-emergent adverse events); format: in vivo, human; settings: for safety and tolerability, in words: single dose of 10 mg or 20 mg and multiple doses of 5 mg, oral
Protocol: Safety was evaluated based on the occurrence, frequency, and severity of adverse events (AEs). Routine clinical laboratory tests, 12‐lead ECGs, physical examinations, and vital signs (blood pressure, pulse rate, and body temperature) were performed at initial screening, day 1, during the treatment period until discharge or early termination. The AEs were monitored from the initial administration to the last follow-up after the last treatment. The AEs were assessed by the investigators with regard to severity (mild, moderate, severe, and life‐threatening) and the relationship to study treatment (reasonably or possibly related and not reasonably or not possibly related).

CCc1nc(-c2ccc3c(c2)CC[C@H]3NC(=O)c2cnn(C)c2)no1 [aficamten]
accumulation ratio (AR_AUC0-24) ([1]; 5 mg QD 14 days, healthy Western participants, CY 6011, ref Robertson et al., 2019, Malik et al.): 4.71 | Cmax, mean (SD) ([1]; 10 mg single dose, healthy Western participants, ref Malik et al.): 70.5 (69.0) ng/mL | effect of CYP2D6 poor metabolizer status on aficamten exposure ([1]; CYP2D6-PM cohort vs non-poor metabolizers, CY 6011, ref Malik et al.): comparable; also recorded: did not affect the pharmacokinetics | median tmax ([1]; SAD 10 mg, healthy Western participants, ref Malik et al.): 1.8 h | time after which steady-state appeared evident ([1]; daily dosing, CY 6011, ref Robertson et al., 2019, Malik et al.): 14 days | safety and tolerability ([1]; healthy Western populations, FIH phase 1, ref Robertson et al., 2019, Malik et al.): safe and well-tolerated | TEAE Alanine aminotransferase increased, Number (%) of Subjects ([2]; MD 5 mg (N = 9)): 0 Number (%) | TEAE Blood bilirubin increased, Number (%) of Subjects ([2]; MD 5 mg (N = 9)): 0 Number (%) | TEAE Blood creatine phosphokinase increased, Events ([2]; MD 5 mg (N = 9)): 1 | TEAE Blood creatine phosphokinase increased, Number (%) of Subjects ([2]; MD 5 mg (N = 9)): 1(11.1) Number (%) | TEAE Blood creatinine increased, Events ([2]; MD 5 mg (N = 9)): 1 | TEAE Blood creatinine increased, Number (%) of Subjects ([2]; MD 5 mg (N = 9)): 1(11.1) Number (%) | TEAE Blood sodium decreased, Events ([2]; MD 5 mg (N = 9)): 1 | TEAE Blood sodium decreased, Number (%) of Subjects ([2]; MD 5 mg (N = 9)): 1(11.1) Number (%) | TEAE Cardiac disorders (SOC), Number (%) of Subjects ([2]; MD 5 mg (N = 9)): 0 Number (%) | TEAE Chest discomfort, Number (%) of Subjects ([2]; MD 5 mg (N = 9)): 0 Number (%) | TEAE Conjugated bilirubin increased, Events ([2]; MD 5 mg (N = 9)): 2 | TEAE Conjugated bilirubin increased, Number (%) of Subjects ([2]; MD 5 mg (N = 9)): 2(22.2) Number (%) | TEAE Gamma-glutamyltransferase increased, Number (%) of Subjects ([2]; MD 5 mg (N = 9)): 0 Number (%) | TEAE Gastrointestinal disorders (SOC), Number (%) of Subjects ([2]; MD 5 mg (N = 9)): 0 Number (%) | TEAE General disorders and administration site conditions (SOC), Number (%) of Subjects ([2]; MD 5 mg (N = 9)): 0 Number (%) | TEAE Heart rate decreased, Number (%) of Subjects ([2]; MD 5 mg (N = 9)): 0 Number (%) | TEAE Investigations (SOC), Events ([2]; MD 5 mg (N = 9)): 13 | TEAE Investigations (SOC), Number (%) of Subjects ([2]; MD 5 mg (N = 9)): 6(66.7) Number (%) | TEAE Nausea, Number (%) of Subjects ([2]; MD 5 mg (N = 9)): 0 Number (%) | TEAE Neutrophil count decreased, Events ([2]; MD 5 mg (N = 9)): 2 | TEAE Neutrophil count decreased, Number (%) of Subjects ([2]; MD 5 mg (N = 9)): 1(11.1) Number (%) | TEAE Neutrophil count increased (first line, r9), Events ([2]; MD 5 mg (N = 9)): 1 | TEAE Neutrophil count increased (first line, r9), Number (%) of Subjects ([2]; MD 5 mg (N = 9)): 1(11.1) Number (%) | TEAE Neutrophil count increased (second line, r18), Events ([2]; MD 5 mg (N = 9)): 1 | TEAE Neutrophil count increased (second line, r18), Number (%) of Subjects ([2]; MD 5 mg (N = 9)): 1(11.1) Number (%) | TEAE Rash, Events ([2]; MD 5 mg (N = 9)): 1 | TEAE Rash, Number (%) of Subjects ([2]; MD 5 mg (N = 9)): 1(11.1) Number (%) | TEAE Skin and subcutaneous tissue disorders (SOC), Events ([2]; MD 5 mg (N = 9)): 1 | TEAE Skin and subcutaneous tissue disorders (SOC), Number (%) of Subjects ([2]; MD 5 mg (N = 9)): 1(11.1) Number (%) | TEAE Systolic blood pressure decreased, Events ([2]; MD 5 mg (N = 9)): 3 | TEAE Systolic blood pressure decreased, Number (%) of Subjects ([2]; MD 5 mg (N = 9)): 2(22.2) Number (%) | TEAE Ventricular hypokinesia, Number (%) of Subjects ([2]; MD 5 mg (N = 9)): 0 Number (%) | TEAE White blood cell count decreased, Number (%) of Subjects ([2]; MD 5 mg (N = 9)): 0 Number (%) | TEAE White blood cell count increased, Events ([2]; MD 5 mg (N = 9)): 1 | TEAE White blood cell count increased, Number (%) of Subjects ([2]; MD 5 mg (N = 9)): 1(11.1) Number (%) | TEAEs, Events ([2]; MD 5 mg (N = 9)): 14 | TEAEs, Number (%) of Subjects ([2]; MD 5 mg (N = 9)): 6(66.7) Number (%) | TEAE Alanine aminotransferase increased, Number (%) of Subjects ([2]; SAD 10 mg (N = 6)): 0 Number (%) | TEAE Blood bilirubin increased, Number (%) of Subjects ([2]; SAD 10 mg (N = 6)): 0 Number (%) | TEAE Blood creatine phosphokinase increased, Number (%) of Subjects ([2]; SAD 10 mg (N = 6)): 0 Number (%) | TEAE Blood creatinine increased, Number (%) of Subjects ([2]; SAD 10 mg (N = 6)): 0 Number (%) | TEAE Blood sodium decreased, Number (%) of Subjects ([2]; SAD 10 mg (N = 6)): 0 Number (%) | TEAE Cardiac disorders (SOC), Events ([2]; SAD 10 mg (N = 6)): 1 | TEAE Cardiac disorders (SOC), Number (%) of Subjects ([2]; SAD 10 mg (N = 6)): 1(16.7) Number (%) | TEAE Chest discomfort, Number (%) of Subjects ([2]; SAD 10 mg (N = 6)): 0 Number (%) | TEAE Conjugated bilirubin increased, Number (%) of Subjects ([2]; SAD 10 mg (N = 6)): 0 Number (%) | TEAE Gamma-glutamyltransferase increased, Number (%) of Subjects ([2]; SAD 10 mg (N = 6)): 0 Number (%) | TEAE Gastrointestinal disorders (SOC), Number (%) of Subjects ([2]; SAD 10 mg (N = 6)): 0 Number (%) | TEAE General disorders and administration site conditions (SOC), Number (%) of Subjects ([2]; SAD 10 mg (N = 6)): 0 Number (%) | TEAE Heart rate decreased, Number (%) of Subjects ([2]; SAD 10 mg (N = 6)): 0 Number (%) | TEAE Investigations (SOC), Events ([2]; SAD 10 mg (N = 6)): 2 | TEAE Investigations (SOC), Number (%) of Subjects ([2]; SAD 10 mg (N = 6)): 1(16.7) Number (%) | TEAE Nausea, Number (%) of Subjects ([2]; SAD 10 mg (N = 6)): 0 Number (%) | TEAE Neutrophil count decreased, Events ([2]; SAD 10 mg (N = 6)): 1 | TEAE Neutrophil count decreased, Number (%) of Subjects ([2]; SAD 10 mg (N = 6)): 1(16.7) Number (%) | TEAE Neutrophil count increased (first line, r9), Number (%) of Subjects ([2]; SAD 10 mg (N = 6)): 0 Number (%) | TEAE Neutrophil count increased (second line, r18), Number (%) of Subjects ([2]; SAD 10 mg (N = 6)): 0 Number (%) | TEAE Rash, Number (%) of Subjects ([2]; SAD 10 mg (N = 6)): 0 Number (%) | TEAE Skin and subcutaneous tissue disorders (SOC), Number (%) of Subjects ([2]; SAD 10 mg (N = 6)): 0 Number (%) | TEAE Systolic blood pressure decreased, Number (%) of Subjects ([2]; SAD 10 mg (N = 6)): 0 Number (%) | TEAE Ventricular hypokinesia, Events ([2]; SAD 10 mg (N = 6)): 1 | TEAE Ventricular hypokinesia, Number (%) of Subjects ([2]; SAD 10 mg (N = 6)): 1(16.7) Number (%) | TEAE White blood cell count decreased, Events ([2]; SAD 10 mg (N = 6)): 1 | TEAE White blood cell count decreased, Number (%) of Subjects ([2]; SAD 10 mg (N = 6)): 1(16.7) Number (%) | TEAE White blood cell count increased, Number (%) of Subjects ([2]; SAD 10 mg (N = 6)): 0 Number (%) | TEAEs, Events ([2]; SAD 10 mg (N = 6)): 3 | TEAEs, Number (%) of Subjects ([2]; SAD 10 mg (N = 6)): 1(16.7) Number (%) | TEAE Alanine aminotransferase increased, Number (%) of Subjects ([2]; SAD 20 mg (N = 6)): 0 Number (%) | TEAE Blood bilirubin increased, Events ([2]; SAD 20 mg (N = 6)): 1 | TEAE Blood bilirubin increased, Number (%) of Subjects ([2]; SAD 20 mg (N = 6)): 1(16.7) Number (%) | TEAE Blood creatine phosphokinase increased, Number (%) of Subjects ([2]; SAD 20 mg (N = 6)): 0 Number (%) | TEAE Blood creatinine increased, Number (%) of Subjects ([2]; SAD 20 mg (N = 6)): 0 Number (%) | TEAE Blood sodium decreased, Number (%) of Subjects ([2]; SAD 20 mg (N = 6)): 0 Number (%) | TEAE Cardiac disorders (SOC), Number (%) of Subjects ([2]; SAD 20 mg (N = 6)): 0 Number (%) | TEAE Chest discomfort, Events ([2]; SAD 20 mg (N = 6)): 2 | TEAE Chest discomfort, Number (%) of Subjects ([2]; SAD 20 mg (N = 6)): 1(16.7) Number (%) | TEAE Conjugated bilirubin increased, Events ([2]; SAD 20 mg (N = 6)): 2 | TEAE Conjugated bilirubin increased, Number (%) of Subjects ([2]; SAD 20 mg (N = 6)): 2(33.3) Number (%) | TEAE Gamma-glutamyltransferase increased, Number (%) of Subjects ([2]; SAD 20 mg (N = 6)): 0 Number (%) | TEAE Gastrointestinal disorders (SOC), Events ([2]; SAD 20 mg (N = 6)): 1 | TEAE Gastrointestinal disorders (SOC), Number (%) of Subjects ([2]; SAD 20 mg (N = 6)): 1(16.7) Number (%) | TEAE General disorders and administration site conditions (SOC), Events ([2]; SAD 20 mg (N = 6)): 2 | TEAE General disorders and administration site conditions (SOC), Number (%) of Subjects ([2]; SAD 20 mg (N = 6)): 1(16.7) Number (%) | TEAE Heart rate decreased, Events ([2]; SAD 20 mg (N = 6)): 2 | TEAE Heart rate decreased, Number (%) of Subjects ([2]; SAD 20 mg (N = 6)): 1(16.7) Number (%) | TEAE Investigations (SOC), Events ([2]; SAD 20 mg (N = 6)): 7 | TEAE Investigations (SOC), Number (%) of Subjects ([2]; SAD 20 mg (N = 6)): 4(66.7) Number (%) | TEAE Nausea, Events ([2]; SAD 20 mg (N = 6)): 1 | TEAE Nausea, Number (%) of Subjects ([2]; SAD 20 mg (N = 6)): 1(16.7) Number (%) | TEAE Neutrophil count decreased, Number (%) of Subjects ([2]; SAD 20 mg (N = 6)): 0 Number (%) | TEAE Neutrophil count increased (first line, r9), Number (%) of Subjects ([2]; SAD 20 mg (N = 6)): 0 Number (%) | TEAE Neutrophil count increased (second line, r18), Number (%) of Subjects ([2]; SAD 20 mg (N = 6)): 0 Number (%) | TEAE Rash, Number (%) of Subjects ([2]; SAD 20 mg (N = 6)): 0 Number (%) | TEAE Skin and subcutaneous tissue disorders (SOC), Number (%) of Subjects ([2]; SAD 20 mg (N = 6)): 0 Number (%) | TEAE Systolic blood pressure decreased, Events ([2]; SAD 20 mg (N = 6)): 2 | TEAE Systolic blood pressure decreased, Number (%) of Subjects ([2]; SAD 20 mg (N = 6)): 2(33.3) Number (%) | TEAE Ventricular hypokinesia, Number (%) of Subjects ([2]; SAD 20 mg (N = 6)): 0 Number (%) | TEAE White blood cell count decreased, Number (%) of Subjects ([2]; SAD 20 mg (N = 6)): 0 Number (%) | TEAE White blood cell count increased, Number (%) of Subjects ([2]; SAD 20 mg (N = 6)): 0 Number (%) | TEAEs, Events ([2]; SAD 20 mg (N = 6)): 10 | TEAEs, Number (%) of Subjects ([2]; SAD 20 mg (N = 6)): 4(66.7) Number (%) | deaths, SAEs, AESIs, discontinuations due to TEAEs, LVEF <50% ([2]; all cohorts): no deaths, serious adverse events (SAEs) | severity of TEAEs ([2]; all cohorts): mild | safety and tolerability, in words [2]: well-tolerated | safety and tolerability, in words ([2]; listed as Aficamten): safe and well-tolerated
